# According to US20240425499A1, “TYRO3 INHIBITORS” (HALIA THERAPEUTICS, INC., priority 2021, published 2024):
# Biological target: recombinant human TYRO3 (Homo sapiens (Human), UniProt Q06418)
# Experiment: TYRO3 enzymatic assay (radiometric [32P]-ATP, Poly(Glu,Tyr) substrate)
# Format: biochemical
# Conditions: recombinant human TYRO3, [32P]-ATP
# Procedure: Poly(Glu, Tyr) sodium salt (Glu:Tyr (4:1), quality level 200, molecular weight 5,000-20,000, obtained from Sigma Aldrich, catalogue #P7244, assay concentration 0.20 mg/mL) and recombinant human TYRO3 (obtained from ThermoFisher Scientific, catalogue #PV3828, assay concentration 2 nM) were mixed in assay buffer (20 mM Hepes pH 7.5, 10 mM MgCl2, 1 mM EGTA, 0.02% Brij35, 0.02 mg/ml BSA, 0.1 mM Na3VO4, 2 mM DTT, 1% DMSO, with added MnCl2 at a final concentration of 2 mM). Compounds of interest (in DMSO, serial 3-fold dilution from 10 μM to 0.5 nM) or control (1% DMSO) were dispensed into the kinase reaction mixture by Acoustic technology (Echo550; nanoliter range). After incubation at room temperature for 20 minutes, the kinase reaction was initiated by addition of [^32P]-ATP (Specific activity 10 μCi/μl) and the mixture was incubated at room temperature for 2 hours. The reaction was then stopped by spotting the reaction mixture on strips of phosphocellulose P81 paper. Following washing, the radioactivity of the P81 paper was measured and kinase activity data were expressed as the percent remaining kinase activity in test samples compared to vehicle (dimethyl sulfoxide) reactions. IC50 values and curve fits were obtained using Prism (GraphPad Software).
# Sequence of recombinant human TYRO3 (Q06418 41-890): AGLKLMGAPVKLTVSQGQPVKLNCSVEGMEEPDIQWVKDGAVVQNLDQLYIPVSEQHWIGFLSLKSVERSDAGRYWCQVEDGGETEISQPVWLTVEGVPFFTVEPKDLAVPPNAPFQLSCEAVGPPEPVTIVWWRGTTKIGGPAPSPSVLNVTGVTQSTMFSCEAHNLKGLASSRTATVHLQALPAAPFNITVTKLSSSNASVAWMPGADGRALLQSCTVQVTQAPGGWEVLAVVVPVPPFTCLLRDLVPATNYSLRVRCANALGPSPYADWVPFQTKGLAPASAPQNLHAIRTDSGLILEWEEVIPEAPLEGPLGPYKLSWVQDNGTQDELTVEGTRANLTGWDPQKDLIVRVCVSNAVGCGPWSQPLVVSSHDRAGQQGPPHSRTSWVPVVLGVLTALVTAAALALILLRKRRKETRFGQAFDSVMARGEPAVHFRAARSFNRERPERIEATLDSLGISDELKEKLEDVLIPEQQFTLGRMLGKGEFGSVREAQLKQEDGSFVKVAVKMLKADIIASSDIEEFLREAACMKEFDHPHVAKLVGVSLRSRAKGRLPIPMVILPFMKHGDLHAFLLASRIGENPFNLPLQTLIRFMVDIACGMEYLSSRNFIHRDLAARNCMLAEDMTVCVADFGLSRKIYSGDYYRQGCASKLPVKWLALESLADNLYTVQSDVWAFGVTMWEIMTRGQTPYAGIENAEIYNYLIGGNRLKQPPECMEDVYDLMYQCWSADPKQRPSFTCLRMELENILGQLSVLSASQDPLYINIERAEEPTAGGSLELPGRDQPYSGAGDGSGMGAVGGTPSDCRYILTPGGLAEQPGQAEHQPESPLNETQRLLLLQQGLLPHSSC
row,SMILES,IC50
1,"COCc1[nH]c2ncc(-c3ccc(CN4CCCC(O)C4)cc3)cc2c1-c1ccc(F)nc1 (stereo not drawn) [compound 64, 1-(4-(3-(6-fluoropyridin-3-yl)-2-(methoxymethyl)-1H-pyrrolo[2,3-b]pyridin-5-yl)benzyl)piperidin-3-ol]",51 to 150 nM
2,"OC1CCCN(Cc2ccc(-c3cnc4[nH]cc(-c5cccc(C(F)(F)F)c5)c4c3)cc2)C1 (stereo not drawn) [compound 11, 1-(4-(3-(3-(trifluoromethyl)phenyl)-1H-pyrrolo[2,3-b]pyridin-5-yl)benzyl)piperidin-3-ol]",51 to 150 nM
3,"OC1CCCN(Cc2ccc(-c3cnc4[nH]cc(-c5ccc(C(F)(F)F)cc5)c4c3)cc2)C1 (stereo not drawn) [compound 10, 1-(4-(3-(4-(trifluoromethyl)phenyl)-1H-pyrrolo[2,3-b]pyridin-5-yl)benzyl)piperidin-3-ol]",151 to 500 nM
4,"COc1ccc(-c2c[nH]c3ncc(-c4ccc(CN5CCC(OC)CC5)cc4)cc23)cn1 [compound 34, 5-(4-((4-methoxypiperidin-1-yl)methyl)phenyl)-3-(6-methoxypyridin-3-yl)-1H-pyrrolo[2,3-b]pyridine]",51 to 150 nM
5,"COc1ccc(-c2c[nH]c3ncc(-c4ccc(CN5CCCC(O)C5)cc4)cc23)cn1 (single isomer, unassigned; enantiomer 1) [compound 26, 1-(4-(3-(6-methoxypyridin-3-yl)-1H-pyrrolo[2,3-b]pyridin-5-yl)benzyl)piperidin-3-ol Enantiomer 1]",< 51 nM
6,"COc1ccc(-c2c[nH]c3ncc(-c4ccc(CN5CCCC(OC)C5)cc4)cc23)cn1 (single isomer, unassigned; enantiomer 1) [compound 38, 5-(4-((3-methoxypiperidin-1-yl)methyl)phenyl)-3-(6-methoxypyridin-3-yl)-1H-pyrrolo[2,3-b]pyridine Enantiomer 1]",151 to 500 nM
7,"COc1ccc(-c2c[nH]c3ncc(-c4ccc(CN5CCCC(O)C5)cc4)cc23)cn1 (single isomer, unassigned; enantiomer 2) [compound 27, 1-(4-(3-(6-methoxypyridin-3-yl)-1H-pyrrolo[2,3-b]pyridin-5-yl)benzyl)piperidin-3-ol Enantiomer 2]",51 to 150 nM
8,"OC1CCCN(Cc2ccc(-c3cnc4[nH]cc(-c5ccc(F)nc5)c4c3)cc2)C1 (stereo not drawn) [compound 21, 1-(4-(3-(6-fluoropyridin-3-yl)-1H-pyrrolo[2,3-b]pyridin-5-yl)benzyl)piperidin-3-ol]",51 to 150 nM
9,"COc1ccc(-c2c[nH]c3ncc(-c4ccc(CN5CCCC(C)(O)C5)cc4)cc23)cn1 (stereo not drawn) [compound 30, 1-(4-(3-(6-methoxypyridin-3-yl)-1H-pyrrolo[2,3-b]pyridin-5-yl)benzyl)-3-methylpiperidin-3-ol]",51 to 150 nM
10,"COc1ccc(-c2c[nH]c3ncc(-c4ccc(CN5CCCC(CO)C5)cc4)cc23)cn1 (stereo not drawn) [compound 32, (1-(4-(3-(6-methoxypyridin-3-yl)-1H-pyrrolo[2,3-b]pyridin-5-yl)benzyl)piperidin-3-yl)methanol]",51 to 150 nM
11,"OCc1[nH]c2ncc(-c3ccc(CN4CCCC(O)C4)cc3)cc2c1-c1cccc(F)c1 (single isomer, unassigned; enantiomer 1) [compound 88, 1-(4-(3-(3-fluorophenyl)-2-(hydroxymethyl)-1H-pyrrolo[2,3-b]pyridin-5-yl)benzyl)piperidin-3-ol Enantiomer 1]",151 to 500 nM
12,"OC1CCCN(Cc2ccc(-c3cnc4[nH]cc(-c5cncc(F)c5)c4c3)cc2)C1 (stereo not drawn) [compound 22, 1-(4-(3-(5-fluoropyridin-3-yl)-1H-pyrrolo[2,3-b]pyridin-5-yl)benzyl)piperidin-3-ol]",51 to 150 nM
13,"OC1CCCN(Cc2ccc(-c3cnc4[nH]cc(-c5ccc(Cl)cc5)c4c3)cc2)C1 (stereo not drawn) [compound 7, 1-(4-(3-(4-chlorophenyl)-1H-pyrrolo[2,3-b]pyridin-5-yl)benzyl)piperidin-3-ol]",51 to 150 nM
14,CNC1CCN(Cc2ccc(-c3cnc4[nH]cc(-c5ccc(OC)nc5)c4c3)cc2)CC1 [compound 73],151 to 500 nM
15,"OC1CCCN(Cc2ccc(-c3cnc4[nH]c(C(F)F)c(-c5cccc(F)c5)c4c3)cc2)C1 (stereo not drawn) [compound 68, 1-(4-(2-(difluoromethyl)-3-(3-fluorophenyl)-1H-pyrrolo[2,3-b]pyridin-5-yl)benzyl)piperidin-3-ol]",51 to 150 nM
16,"OCc1ccc(-c2c[nH]c3ncc(-c4ccc(CN5CCCC(O)C5)cc4)cc23)cn1 (stereo not drawn) [compound 43, 1-(4-(3-(6-(hydroxymethyl)pyridin-3-yl)-1H-pyrrolo[2,3-b]pyridin-5-yl)benzyl)piperidin-3-ol]",51 to 150 nM
17,"COc1ccc(-c2c[nH]c3ncc(-c4ccc(CN5CCC(C)(O)CC5)cc4)cc23)cn1 [compound 71, 1-(4-(3-(6-methoxypyridin-3-yl)-1H-pyrrolo[2,3-b]pyridin-5-yl)benzyl)-4-methylpiperidin-4-ol]",51 to 150 nM

row,SMILES,IC50
1,"COc1ccc(-c2c[nH]c3ncc(-c4ccc(CN5CC(OC)C5)cc4)cc23)cn1 [compound 35, 5-(4-((3-methoxyazetidin-1-yl)methyl)phenyl)-3-(6-methoxypyridin-3-yl)-1H-pyrrolo[2,3-b]pyridine]",51 to 150 nM
2,"COCC1CCCN(Cc2ccc(-c3cnc4[nH]cc(-c5ccc(OC)nc5)c4c3)cc2)C1 (stereo not drawn) [compound 70, 5-(4-((3-(methoxymethyl)piperidin-1-yl)methyl)phenyl)-3-(6-methoxypyridin-3-yl)-1H-pyrrolo[2,3-b]pyridine]",51 to 150 nM
3,"Cc1ccc(-c2c[nH]c3ncc(-c4ccc(CN5CCCC(O)C5)cc4)cc23)cn1 (stereo not drawn) [compound 20, 1-(4-(3-(6-methylpyridin-3-yl)-1H-pyrrolo[2,3-b]pyridin-5-yl)benzyl)piperidin-3-ol]",51 to 150 nM
4,"OCc1[nH]c2ncc(-c3ccc(CN4CCCC(O)C4)cc3)cc2c1-c1cccc(F)c1 (single isomer, unassigned; enantiomer 2) [compound 89, 1-(4-(3-(3-fluorophenyl)-2-(hydroxymethyl)-1H-pyrrolo[2,3-b]pyridin-5-yl)benzyl)piperidin-3-ol Enantiomer 2]",51 to 150 nM
5,"Cc1ccc(-c2c[nH]c3ncc(-c4ccc(CN5CCCC(O)C5)cc4)cc23)cc1 (stereo not drawn) [compound 1, 1-(4-(3-(p-tolyl)-1H-pyrrolo[2,3-b]pyridin-5-yl)benzyl)piperidin-3-ol]",51 to 150 nM
6,"COc1ccc(-c2c(C)[nH]c3ncc(-c4ccc(CN5CCCC(O)C5)cc4)cc23)cn1 (stereo not drawn) [compound 62, 1-(4-(3-(6-methoxypyridin-3-yl)-2-methyl-1H-pyrrolo[2,3-b]pyridin-5-yl)benzyl)piperidin-3-ol]",51 to 150 nM
7,"Fc1cccc(-c2c[nH]c3ncc(-c4ccc(CN5C[C@@H]6C[C@H]5CO6)cc4)cc23)c1 [compound 6, (1S,4S)-5-(4-(3-(3-fluorophenyl)-1H-pyrrolo[2,3-b]pyridin-5-yl)benzyl)-2-oxa-5-azabicyclo[2.2.1]heptane]",51 to 150 nM
8,"OC1CCCN(Cc2ccc(-c3cnc4[nH]c(Cl)c(-c5cccc(C(F)F)c5)c4c3)cc2)C1 (stereo not drawn) [compound 55, 1-(4-(2-chloro-3-(3-(difluoromethyl)phenyl)-1H-pyrrolo[2,3-b]pyridin-5-yl)benzyl)piperidin-3-ol]",151 to 500 nM
9,"COc1ccc(-c2c[nH]c3ncc(-c4ccc(CN5CCC(O)CC5)cc4)cc23)cn1 [compound 28, 1-(4-(3-(6-methoxypyridin-3-yl)-1H-pyrrolo[2,3-b]pyridin-5-yl)benzyl)piperidin-4-ol]",151 to 500 nM
10,"OC1CCCN(Cc2ccc(-c3cnc4[nH]cc(-c5cccc(Cl)c5)c4c3)cc2)C1 (stereo not drawn) [compound 8, 1-(4-(3-(3-chlorophenyl)-1H-pyrrolo[2,3-b]pyridin-5-yl)benzyl)piperidin-3-ol]",51 to 150 nM
11,"CN1CCc2cc(-c3c[nH]c4ncc(-c5ccc(CN6CCCC(CO)C6)cc5)cc34)ccc2C1 (stereo not drawn) [compound 82, (1-(4-(3-(2-methyl-1,2,3,4-tetrahydroisoquinolin-6-yl)-1H-pyrrolo[2,3-b]pyridin-5-yl)benzyl)piperidin-3-yl)methanol]",51 to 150 nM
12,"CCN1CCc2cc(-c3c[nH]c4ncc(-c5ccc(CN6CCCC(O)C6)cc5)cc34)ccc2C1 (stereo not drawn) [compound 81, 1-(4-(3-(2-ethyl-1,2,3,4-tetrahydroisoquinolin-6-yl)-1H-pyrrolo[2,3-b]pyridin-5-yl)benzyl)piperidin-3-ol]",51 to 150 nM
13,"OC1CCCN(Cc2ccc(-c3cnc4[nH]cc(-c5ccc(F)cc5)c4c3)cc2)C1 (stereo not drawn) [compound 3, 1-(4-(3-(4-fluorophenyl)-1H-pyrrolo[2,3-b]pyridin-5-yl)benzyl)piperidin-3-ol]",51 to 150 nM
14,"CCOC1CN(Cc2ccc(-c3cnc4[nH]cc(-c5ccc(OC)nc5)c4c3)cc2)C1 [compound 36, 5-(4-((3-ethoxyazetidin-1-yl)methyl)phenyl)-3-(6-methoxypyridin-3-yl)-1H-pyrrolo[2,3-b]pyridine]",151 to 500 nM
15,"COc1ccc(-c2c[nH]c3ncc(-c4ccc(CN5CCCC(F)C5)cc4)cc23)cn1 (stereo not drawn) [compound 40, 5-(4-((3-fluoropiperidin-1-yl)methyl)phenyl)-3-(6-methoxypyridin-3-yl)-1H-pyrrolo[2,3-b]pyridine]",151 to 500 nM
16,"COc1ccc(-c2c[nH]c3ncc(-c4ccc(CN5CCCC(OC(C)=O)C5)cc4)cc23)cn1 (stereo not drawn) [compound 69, 1-(4-(3-(6-methoxypyridin-3-yl)-1H-pyrrolo[2,3-b]pyridin-5-yl)benzyl)piperidin-3-yl acetate]",151 to 500 nM
